In patent publication US9181214B2 (RHIZEN PHARMACEUTICALS SA, priority 2011, dated 2015) one finds activation and EC50 data, which are given here for one molecule.

Holding throughout (type): cell-based
One experiment deals with T1, human GPR119 (Homo sapiens, UniProt Q8TDV5).
T1 construct: expressed in transfected cells; host or cells: HEK293 (transient transfection, Lipofectamine 2000)
T1 sequence (Q8TDV5 1-335): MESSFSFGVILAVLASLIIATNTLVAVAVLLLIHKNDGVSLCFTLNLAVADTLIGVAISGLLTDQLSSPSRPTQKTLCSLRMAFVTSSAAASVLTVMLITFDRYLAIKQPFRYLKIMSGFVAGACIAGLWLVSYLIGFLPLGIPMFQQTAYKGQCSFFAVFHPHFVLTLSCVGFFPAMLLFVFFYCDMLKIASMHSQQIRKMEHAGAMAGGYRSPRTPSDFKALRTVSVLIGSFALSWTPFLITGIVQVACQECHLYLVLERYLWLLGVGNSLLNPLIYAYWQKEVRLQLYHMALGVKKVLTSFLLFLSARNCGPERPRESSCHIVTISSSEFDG
Briefly: In vitro cyclic AMP assay (Cisbio HTRF) in HEK293 cells transfected with human GPR119. The conditions noted are these: cAMP, Table I. Put shortly:
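HEK293 cells transiently transfected with human GPR119 plasmid (or empty vector), replated 24 h later and exposed to compounds for 60 min at room temperature. cAMP measured by HTRF (cAMP-d2/cryptate, 665/620 nm ratio) after 1 h lysis; EC50 from concentration-response curves, also % induction at 10 μM.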

The target in the next experiment is T2, Mouse GPR119 (Mus musculus, UniProt Q7TQP3).
T2 construct: expressed in transfected cells
T2 sequence (Q7TQP3 1-335): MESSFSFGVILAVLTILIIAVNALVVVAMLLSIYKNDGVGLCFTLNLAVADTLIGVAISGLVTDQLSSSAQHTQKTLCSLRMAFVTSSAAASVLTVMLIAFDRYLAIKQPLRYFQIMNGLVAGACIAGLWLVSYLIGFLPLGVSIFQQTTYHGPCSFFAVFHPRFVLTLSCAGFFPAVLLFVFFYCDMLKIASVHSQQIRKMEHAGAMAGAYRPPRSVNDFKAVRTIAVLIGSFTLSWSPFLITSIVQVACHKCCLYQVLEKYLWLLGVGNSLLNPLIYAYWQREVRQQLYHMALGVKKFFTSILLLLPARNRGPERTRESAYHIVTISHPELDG
The experiment can be described thus: In vitro mouse GPR 119 cyclic AMP assay in stably transfected HEK293 cells. The conditions noted are these: cAMP, HEK293 cells stably transfected with mouse GPR119. How it is done: B. In Vitro Mouse GPR 119 Cyclic AMP Assay:
(§1) cAMP measurements were done using a Cisbio dynamic 2 HTRF kit (Cisbio, Bedford, Mass.) according to the manufacturer's protocol. HEK293 Cells were stably transfected with Mouse GPR119 expression plasmid DNA using Lipofectamine 2000 (Invitrogen) and maintained in culture. Cells were harvested, counted and plated at 1000 cells/5 ul in a black 384 welled small volume plate. Cells were treated with desired concentrations of compounds and incubated for 60 min at room temperature. Lysis buffer containing cAMP-d2 and cryptate conjugate were added and incubated for 1 h. HRTF ratio was measured on a microplate reader (BMG Labtech., Germany) at an excitation wavelength of 337 nm and emission wavelengths of 665 and 615 nm with an integration time of 400 μsec. Data were analyzed using Graphpad Prism (Graphpad software; San Diego Calif.) for EC50 determination.

A further experiment has as its system HIT-T15 cells. The experiment can be described thus: In vitro HIT-T15 cyclic AMP assay. The conditions noted are these: cAMP. How it is done: C. In Vitro HIT-T15 Cyclic AMP Assay:
as §1, with “Briefly, HIT-T15 cells” for “HEK293 Cells were stably transfected with Mouse GPR119 expression plasmid DNA using Lipofectamine 2000 (Invitrogen) and maintained in culture. Cells”, “4000” for “1000”, “ul PBS-BSA solution” for “ul”

Some results are limits rather than exact numbers.

For orientation: EC50 means the concentration needed to bring the measured effect to its halfway point. Read a low EC50 as a more potent agent. On human GPR119 (1 h, % Induction @ 10 μM), `CC(C)(C)OC(=O)N1CCC(c2nc3cc(-c4ccc(-n5cnnn5)cc4F)ccc3o2)CC1` [EXAMPLE-12, Tert-butyl 4-{5-[2-fluoro-4-(1H-tetrazol-1-yl)phenyl]benzo[d]oxazol-2-yl}piperidine-1-carboxylate] registered an activation at 10 µM of 83%. Further, the EC50 on human GPR119 (Emax varies between 65 to 80%) was at most 0.025 µM; at Mouse GPR119, below 0.025 µM; in the experiment on HIT-T15 cells, below 0.025 µM.
